The values below come from DBAASP.

What all share (experiment): ≥ marks a high value that may be exact or a test limit, other limits are often not marked, values filed in µg/mL are converted to µM
Assay [1] has as its system Aspergillus flavus KCTC 6905.
For assay [2], the system named is Aspergillus fumigatus KCTC 6145.
The test system of assay [3] is Bacillus subtilis KCTC 1998.
Assay [4] has as its system Candida albicans KCTC 7270.
Assay [5] deals with Candida krusei CCARM 14017.
Assay [6] deals with Candida parapsilosis CCARM 14016.
Assay [7] relates to Candida tropicalis KCTC 7221.
Assay [8] concerns Escherichia coli ATCC 25922.
The subject of assay [9] is Fusarium oxysporum KCTC 16909.
The test system of assay [10] is Fusarium solani KCTC 6326.
For assay [11], the system named is Fusarium verticillioides KCTC 6149.
The subject of assay [12] is Pseudomonas aeruginosa ATCC 15692.
The test system of a further assay is Pseudomonas aeruginosa.
The subject of assay [13] is Staphylococcus aureus ATCC 25923.
In another assay the test system is Staphylococcus aureus.
The subject of assay [14] is Trichophyton rubrum KCTC 6345.
Assay [15] has as its system Trichosporon beigelii KCTC 7707.
The test system of assay [16] is Acinetobacter baumannii ATCC 17978.
The test system of assay [17] is Bacillus subtilis ATCC 13933.
Assay [18] has as its system Candida albicans ATCC 90028.
The test system of assay [19] is Escherichia coli ATCC 700928.
Assay [20] concerns Escherichia coli NCTC 12923.
Assay [21] concerns Klebsiella pneumoniae NCTC 13368.
Assay [22] has as its system Pseudomonas aeruginosa PAO1.
Assay [23] deals with Staphylococcus aureus ATCC 9144.
The subject of assay [24] is Staphylococcus aureus USA 300.
Assay [25] concerns Bacillus subtilis CMCC 63501.
Assay [26] deals with Micrococcus luteus CMCC 28001.
In assay [27] the test system is Ralstonia solanacearum ATCC 33192.
For assay [28], the system named is Salmonella enterica subsp. enterica serovar Typhi CMCC 50071.
Assay [29] deals with Shigella dysenteriae CMCC 51252.
Assay [30] deals with Streptococcus pneumoniae ATCC 49619.
Assay [31] deals with Acinetobacter baumannii CCARM 12005.
Assay [32] concerns Acinetobacter baumannii CCARM 12035.
The test system of assay [33] is Acinetobacter baumannii CCARM 12036.
For assay [34], the system named is Acinetobacter baumannii CCARM 12037.
Assay [35] has as its system Bacillus subtilis KCTC 3068.
Assay [36] relates to Enterococcus faecalis KCTC 2011.
Assay [37] concerns Escherichia coli CCARM 1229.
Assay [38] concerns Escherichia coli CCARM 1238.
The test system of assay [39] is Escherichia coli KCTC 1682.
For assay [40], the system named is Pseudomonas aeruginosa CCARM 2002.
Assay [41] relates to Pseudomonas aeruginosa CCARM 2095.
Assay [42] relates to Pseudomonas aeruginosa CCARM 2163.
Assay [43] concerns Pseudomonas aeruginosa KCTC 1637.
Assay [44] deals with Salmonella typhimurium CCARM 8003.
In assay [45] the test system is Salmonella typhimurium CCARM 8007.
Assay [46] concerns Salmonella typhimurium CCARM 8009.
In assay [47] the test system is Salmonella typhimurium KCTC 1926.
For assay [48], the system named is Staphylococcus aureus CCARM 3089.
Assay [49] concerns Staphylococcus aureus CCARM 3108.
The test system of assay [50] is Staphylococcus aureus CCARM 3126.
Assay [51] deals with Staphylococcus aureus KCTC 1621.

The structures appear in SMILES notation. Values after ≈ are worked out from the molar mass of the structure shown.

With `CC[C@H](C)[C@H](NC(=O)[C@H](CC(C)C)NC(=O)[C@H](CCCCN)NC(=O)[C@H](CCCCN)NC(=O)[C@H](CC(C)C)NC(=O)[C@H](CCCN=C(N)N)NC(=O)[C@H](CCCCN)NC(=O)[C@@H](N)Cc1ccccc1)C(=O)N[C@@H](CO)C(=O)N[C@@H](Cc1c[nH]c2ccccc12)C(=O)N[C@H](C(=O)N[C@@H](CCCCN)C(=O)N[C@@H](CCCN=C(N)N)C(=O)N[C@@H](CCCCN)C(=O)N[C@@H](CCCN=C(N)N)C(=O)N[C@@H](CCC(N)=O)C(=O)N[C@@H](CCC(N)=O)C(N)=O)[C@@H](C)CC` [FKRLKKLISWIKRKRQQ], the MIC is 2.83 µM (≈ 6.38 µg/mL) in assay [1]; 2.83 µM (≈ 6.38 µg/mL) in assay [2]; 2 µM (≈ 4.51 µg/mL) in [3]; 16 µM (≈ 36.1 µg/mL) in assay [4]; 8 µM (≈ 18 µg/mL) in assay [5]; 16 µM (≈ 36.1 µg/mL) in [6]. In addition, the MIC came to 4 µM (≈ 9.02 µg/mL) in assay [7]; 1 µM (≈ 2.26 µg/mL) in [8]; 1.41 µM (≈ 3.19 µg/mL) in assay [9]; 1 µM (≈ 2.26 µg/mL) in [10]; 1.41 µM (≈ 3.19 µg/mL) in [11]; 2 µM (≈ 4.51 µg/mL) in assay [12]. The MIC with Pseudomonas aeruginosa is 1.41 µM (≈ 3.19 µg/mL); in [13], 2 µM (≈ 4.51 µg/mL); against Staphylococcus aureus, 1.41 µM (≈ 3.19 µg/mL); in [14] it was 1.41 µM (≈ 3.19 µg/mL); in assay [15], 1 µM (≈ 2.26 µg/mL).

`CC[C@H](C)[C@H](NC(=O)CNC(=O)[C@@H](N)CCCCN)C(=O)N[C@@H](CCCN=C(N)N)C(=O)NCC(=O)N[C@@H](Cc1ccc(O)cc1)C(=O)N[C@@H](CCCCN)C(=O)NCC(=O)NCC(=O)N[C@@H](Cc1ccc(O)cc1)C(=O)N[C@@H](CCCCN)C(=O)NCC(=O)N[C@@H](C)C(=O)N[C@@H](Cc1ccccc1)C(=O)N[C@@H](CCCCN)C(=O)N[C@@H](CCC(N)=O)C(=O)N[C@H](C(=O)N[C@@H](CCCCN)C(=O)N[C@@H](Cc1ccc(O)cc1)C(=O)O)[C@@H](C)O` [KGIRGYKGGYKGAFKQTKY]: the minimal inhibitory concentration (MIC) in assay [16] is at least 59.5 µM; in [17], at least 55.8 µM; in assay [18] it was 2.2 µM (≈ 4.73 µg/mL); in [19] it was at least 55.8 µM; in [20] it was at least 59.5 µM; in assay [21] it was at least 59.5 µM. For the same compound, the MIC in [22] is over 59.5 µM; in assay [23] it was at least 59.5 µM; in assay [24], at least 59.5 µM.

In the case of `CC[C@H](C)[C@H](NC(=O)[C@H](Cc1c[nH]c2ccccc12)NC(=O)[C@@H](N)CCSC)C(=O)N[C@H](C(=O)N[C@@H](CC(N)=O)C(=O)NCC(=O)NCC(=O)N[C@H](C(=O)N[C@@H](C)C(=O)N[C@@H](CC(N)=O)C(=O)N[C@@H](Cc1c[nH]c2ccccc12)C(=O)N[C@@H](Cc1ccc(O)cc1)C(=O)N[C@@H](Cc1ccccc1)C(=O)N[C@H](C(=O)N[C@@H](CC(C)C)C(=O)N[C@@H](C)C(=O)N[C@@H](CCCN=C(N)N)C(=O)O)C(C)C)C(C)C)[C@@H](C)O` [MWITNGGVANWYFVLAR], the MIC was determined as 6.26 µM (≈ 12.5 µg/mL) in [25]; 6.26 µM (≈ 12.5 µg/mL) in assay [8]; 12.5 µM (≈ 25 µg/mL) in assay [26]; 6.26 µM (≈ 12.5 µg/mL) in assay [27]; 3.13 µM (≈ 6.25 µg/mL) in [28]; 1.57 µM (≈ 3.14 µg/mL) in assay [29]. The MIC was determined as 12.5 µM (≈ 25 µg/mL) in assay [13] and 6.26 µM (≈ 12.5 µg/mL) in assay [30].

For the compound `CC[C@H](C)[C@H](NC(=O)[C@H](CCCCN)NC(=O)[C@H](Cc1c[nH]c2ccccc12)NC(=O)[C@@H](N)CCCN=C(N)N)C(=O)N[C@@H](Cc1ccccc1)C(=O)N[C@@H](CCCCN)C(=O)N[C@@H](CCCCN)C(=O)N[C@H](C(=O)N1CCC[C@H]1C(=O)N[C@@H](CCCCN)C(=O)N[C@@H](Cc1ccccc1)C(=O)N[C@@H](CC(C)C)C(=O)N[C@@H](Cc1cnc[nH]1)C(=O)N[C@@H](CO)C(=O)N[C@@H](C)C(=O)N[C@@H](CCCCN)C(=O)N[C@@H](CCCCN)C(=O)N[C@@H](Cc1ccccc1)C(N)=O)[C@@H](C)CC` [RWKIFKKIPKFLHSAKKF], the MIC is 2 µM (≈ 4.6 µg/mL) in assay [31]; 2 µM (≈ 4.6 µg/mL) in assay [32]; 2 µM (≈ 4.6 µg/mL) in [33]; 2 µM (≈ 4.6 µg/mL) in assay [34]; 4 µM (≈ 9.21 µg/mL) in [35]; 16 µM (≈ 36.8 µg/mL) in assay [36]. Moreover, the MIC in assay [37] worked out at 4 µM (≈ 9.21 µg/mL); in assay [38] it was 2 µM (≈ 4.6 µg/mL); in [39], 2 µM (≈ 4.6 µg/mL); in assay [40], 2 µM (≈ 4.6 µg/mL); in [41] it was 2 µM (≈ 4.6 µg/mL); in assay [42], 2 µM (≈ 4.6 µg/mL). The MIC in assay [43] came out at 4 µM (≈ 9.21 µg/mL); in assay [44], 4 µM (≈ 9.21 µg/mL); in [45], 2 µM (≈ 4.6 µg/mL); in [46] it was 2 µM (≈ 4.6 µg/mL); in assay [47] it was 2 µM (≈ 4.6 µg/mL); in assay [48] it was 8 µM (≈ 18.4 µg/mL). Moreover, the MIC in assay [49] came to 4 µM (≈ 9.21 µg/mL); in [50], 8 µM (≈ 18.4 µg/mL); in assay [51], 4 µM (≈ 9.21 µg/mL).
